Results as given in US7880007B2, “Bicyclic substituted phenyl piperidine modulators of muscarinic receptors” (Vertex Pharmaceuticals Incorporated, priority 2004, dated 2011).

Assays:
Format in all cases: cell-based
M4 muscarinic receptor = target: T1, M4 muscarinic receptor (Homo sapiens, UniProt P08173); test: Functional mobilization of intracellular calcium (FLIPR), M4-CHO cells; settings: for Emax: 100% efficacy = maximum response obtained with the Carbachol control; for M4 Activity: M4-CHO cells, calcium mobilization (FLIPR)
T1 construct: expressed in transfected cells; host or cells: CHO (M4-CHO)
T1 sequence (P08173 1-479): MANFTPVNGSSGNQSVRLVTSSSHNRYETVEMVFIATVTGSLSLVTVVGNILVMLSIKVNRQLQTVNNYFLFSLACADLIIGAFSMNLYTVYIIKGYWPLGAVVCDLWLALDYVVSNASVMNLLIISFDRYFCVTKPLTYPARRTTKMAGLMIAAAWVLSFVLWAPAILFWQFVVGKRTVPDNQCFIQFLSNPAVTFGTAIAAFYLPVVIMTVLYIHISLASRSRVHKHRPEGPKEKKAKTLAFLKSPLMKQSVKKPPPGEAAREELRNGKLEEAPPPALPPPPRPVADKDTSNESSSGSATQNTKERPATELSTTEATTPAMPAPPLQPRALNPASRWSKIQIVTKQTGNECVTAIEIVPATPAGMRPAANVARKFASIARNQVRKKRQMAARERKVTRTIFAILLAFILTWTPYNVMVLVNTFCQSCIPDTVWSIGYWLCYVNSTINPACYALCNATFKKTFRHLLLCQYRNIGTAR
Method in brief: (§1)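 CHO cells expressing human M1–M4 receptors loaded with Fluo-3 AM or Calcium 3 dye (1 mM probenecid, pH 7.4); 0.5% DMSO final. Agonist mode: compound added directly; antagonist mode: 15 min pre-incubation or co-application, then carbachol at EC80. Fluorescence read 60 s on FLIPR; efficacy relative to carbachol maximum.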

M1 muscarinic receptor = target: T2, M1 muscarinic receptor (Homo sapiens, UniProt P11229); test: Functional mobilization of intracellular calcium (FLIPR), M1-CHO cells; settings: for Emax: 100% efficacy = maximum response obtained with the Carbachol control; for M1 Activity: M1-CHO cells, calcium mobilization (FLIPR)
T2 construct: expressed in transfected cells; host or cells: CHO (M1-CHO)
T2 sequence (P11229 1-460): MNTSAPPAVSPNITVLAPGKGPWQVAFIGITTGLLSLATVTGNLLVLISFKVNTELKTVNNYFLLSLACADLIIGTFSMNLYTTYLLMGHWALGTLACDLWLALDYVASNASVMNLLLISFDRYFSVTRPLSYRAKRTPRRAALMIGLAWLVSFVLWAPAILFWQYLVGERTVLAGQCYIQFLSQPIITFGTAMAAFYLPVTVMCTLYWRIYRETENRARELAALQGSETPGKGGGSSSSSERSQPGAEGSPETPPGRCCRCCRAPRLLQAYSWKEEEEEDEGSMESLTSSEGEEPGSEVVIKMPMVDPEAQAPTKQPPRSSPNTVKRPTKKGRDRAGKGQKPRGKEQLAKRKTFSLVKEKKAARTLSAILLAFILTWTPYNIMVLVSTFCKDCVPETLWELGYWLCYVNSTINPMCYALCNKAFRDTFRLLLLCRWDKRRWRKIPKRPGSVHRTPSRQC
Method in brief: as §1

M3 muscarinic receptor = target: T3, M3 muscarinic receptor (Homo sapiens, UniProt P20309); test: Functional mobilization of intracellular calcium (FLIPR), M3-CHO cells; settings: for Emax: 100% efficacy = maximum response obtained with the Carbachol control; for M3 Activity: M3-CHO cells, calcium mobilization (FLIPR)
T3 construct: expressed in transfected cells; host or cells: CHO (M3-CHO)
T3 sequence (P20309 whole entry): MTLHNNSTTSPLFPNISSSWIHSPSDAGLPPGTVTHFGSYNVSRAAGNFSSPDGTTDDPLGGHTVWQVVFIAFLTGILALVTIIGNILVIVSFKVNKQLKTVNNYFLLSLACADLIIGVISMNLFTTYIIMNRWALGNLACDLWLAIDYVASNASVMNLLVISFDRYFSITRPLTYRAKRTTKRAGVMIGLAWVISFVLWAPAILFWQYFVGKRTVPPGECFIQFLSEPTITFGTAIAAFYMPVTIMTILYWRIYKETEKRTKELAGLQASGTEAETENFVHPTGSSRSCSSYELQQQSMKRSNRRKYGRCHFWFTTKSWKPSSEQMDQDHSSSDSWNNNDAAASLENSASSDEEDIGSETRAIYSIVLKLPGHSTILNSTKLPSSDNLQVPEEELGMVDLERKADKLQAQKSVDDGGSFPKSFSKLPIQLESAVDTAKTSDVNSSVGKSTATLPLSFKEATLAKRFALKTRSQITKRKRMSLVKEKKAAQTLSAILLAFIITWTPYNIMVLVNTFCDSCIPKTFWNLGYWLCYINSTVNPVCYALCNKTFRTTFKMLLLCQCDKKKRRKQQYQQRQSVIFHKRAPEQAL
Method in brief: as §1

M2 muscarinic receptor = target: T4, M2 muscarinic receptor (Homo sapiens, UniProt P08172); test: Functional mobilization of intracellular calcium (FLIPR), M2-CHO cells; settings: for Emax: 100% efficacy = maximum response obtained with the Carbachol control; for M2 Activity: M2-CHO cells, calcium mobilization (FLIPR)
T4 construct: expressed in transfected cells; host or cells: CHO (M2-CHO)
T4 sequence (P08172 1-466): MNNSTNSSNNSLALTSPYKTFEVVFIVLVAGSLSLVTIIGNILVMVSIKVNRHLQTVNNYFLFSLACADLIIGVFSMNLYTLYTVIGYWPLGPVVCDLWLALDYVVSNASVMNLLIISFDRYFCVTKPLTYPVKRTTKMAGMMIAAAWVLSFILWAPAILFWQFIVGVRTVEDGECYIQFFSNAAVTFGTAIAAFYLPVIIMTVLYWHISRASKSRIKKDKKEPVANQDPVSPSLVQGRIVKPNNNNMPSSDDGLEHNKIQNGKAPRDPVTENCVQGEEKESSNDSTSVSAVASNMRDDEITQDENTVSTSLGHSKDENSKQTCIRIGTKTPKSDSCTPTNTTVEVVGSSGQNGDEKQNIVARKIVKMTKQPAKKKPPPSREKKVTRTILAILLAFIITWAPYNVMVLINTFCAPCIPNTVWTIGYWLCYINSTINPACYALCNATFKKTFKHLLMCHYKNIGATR
Method in brief: as §1

| Emax (M4 muscarinic receptor) [%] | Emax (M1 muscarinic receptor) [%] | Emax (M3 muscarinic receptor) [%] | Emax (M2 muscarinic receptor) [%] | Structure (SMILES) | M4 Activity (M4 muscarinic receptor) | M1 Activity (M1 muscarinic receptor) | M3 Activity (M3 muscarinic receptor) | M2 Activity (M2 muscarinic receptor) |
| --- | --- | --- | --- | --- | --- | --- | --- | --- |
| < 25 | < 25 | < 25 | < 25 | COc1ccc(-c2cccnc2)cc1C1CCN([C@H]2C[C@H]3CC[C@H]2C3)CC1 [Compound 148] | + (activity was measured to be greater than 5.0 μM) | + (activity was measured to be greater than 5.0 μM) | + (activity was measured to be greater than 5.0 μM) | + (activity was measured to be greater than 5.0 μM) |
| 25 to 100 | 25 to 100 | < 25 | < 25 | Cc1c(C2CCN(C3C[C@H]4CC[C@H]3C4)CC2)cccc1C(F)(F)F (stereo partly drawn) [Compound 149] | + (activity was measured to be greater than 5.0 μM) | + (activity was measured to be greater than 5.0 μM) | + (activity was measured to be greater than 5.0 μM) | + (activity was measured to be greater than 5.0 μM) |
| < 25 | < 25 | < 25 | < 25 | COc1ccccc1C1CCN(C2CCC(C(C)(C)C)CC2)CC1 (stereo not drawn) [Compound 152] | + (activity was measured to be greater than 5.0 μM) | + (activity was measured to be greater than 5.0 μM) | + (activity was measured to be greater than 5.0 μM) | + (activity was measured to be greater than 5.0 μM) |
| 25 to 100 | < 25 | < 25 | < 25 | COc1ccccc1[C@@H]1CCN([C@@H]2C[C@H]3CC[C@H]2C3)C[C@H]1O [Compound 154] | + (activity was measured to be greater than 5.0 μM) | + (activity was measured to be greater than 5.0 μM) | + (activity was measured to be greater than 5.0 μM) | + (activity was measured to be greater than 5.0 μM) |
| < 25 | < 25 | < 25 | < 25 | COc1ccccc1C1CCN(C2CCC(C(C)C)CC2)CC1 (stereo not drawn) [Compound 155] | + (activity was measured to be greater than 5.0 μM) | + (activity was measured to be greater than 5.0 μM) | + (activity was measured to be greater than 5.0 μM) | + (activity was measured to be greater than 5.0 μM) |
| 25 to 100 | 25 to 100 | < 25 | < 25 | COc1ccccc1C1CCN(C2CCC(C)CC2)CC1 (stereo not drawn) [Compound 158] | +++ (activity was measured to be less than 1.0 μM) | + (activity was measured to be greater than 5.0 μM) | + (activity was measured to be greater than 5.0 μM) | + (activity was measured to be greater than 5.0 μM) |
| 25 to 100 | 25 to 100 | < 25 | 25 to 100 | COc1ccc(Cl)cc1C1(F)CCN(C2CCCCCC2)CC1 [Compound 161] | + (activity was measured to be greater than 5.0 μM) | + (activity was measured to be greater than 5.0 μM) | + (activity was measured to be greater than 5.0 μM) | + (activity was measured to be greater than 5.0 μM) |
| 25 to 100 | 25 to 100 | < 25 | < 25 | COc1ccc(F)cc1C1CCN(CC2CCOCC2)CC1 [Compound 163] | +++ (activity was measured to be less than 1.0 μM) | + (activity was measured to be greater than 5.0 μM) | + (activity was measured to be greater than 5.0 μM) | + (activity was measured to be greater than 5.0 μM) |
| 25 to 100 | 25 to 100 | < 25 | < 25 | COc1c(F)cc(F)cc1C1CCN([C@H]2C[C@H]3CC[C@H]2C3)CC1 [Compound 165] | ++ (activity was measured to be from 1.0 μM to 5.0 μM) | + (activity was measured to be greater than 5.0 μM) | + (activity was measured to be greater than 5.0 μM) | + (activity was measured to be greater than 5.0 μM) |
| 25 to 100 | 25 to 100 | < 25 | < 25 | COc1ccc(F)cc1C1CCN(C[C@@H]2C[C@H]3C=C[C@H]2C3)CC1 [Compound 167] | +++ (activity was measured to be less than 1.0 μM) | ++ (activity was measured to be from 1.0 μM to 5.0 μM) | + (activity was measured to be greater than 5.0 μM) | + (activity was measured to be greater than 5.0 μM) |
| 25 to 100 | < 25 | < 25 | < 25 | COc1ccc(-c2ccccc2)cc1C1CCN([C@H]2C[C@H]3CC[C@H]2C3)CC1 [Compound 168] | + (activity was measured to be greater than 5.0 μM) | + (activity was measured to be greater than 5.0 μM) | + (activity was measured to be greater than 5.0 μM) | + (activity was measured to be greater than 5.0 μM) |
| 25 to 100 | 25 to 100 | < 25 | < 25 | COc1ccccc1C1CCN(C2CC3CCC(C3)C2)CC1 (stereo not drawn) [Compound 169] | +++ (activity was measured to be less than 1.0 μM) | ++ (activity was measured to be from 1.0 μM to 5.0 μM) | + (activity was measured to be greater than 5.0 μM) | + (activity was measured to be greater than 5.0 μM) |
| 25 to 100 | < 25 | < 25 | < 25 | O=C(COc1ccccc1C1CCN([C@H]2C[C@H]3CC[C@H]2C3)CC1)c1ccccc1Cl [Compound 170] | +++ (activity was measured to be less than 1.0 μM) | + (activity was measured to be greater than 5.0 μM) | + (activity was measured to be greater than 5.0 μM) | + (activity was measured to be greater than 5.0 μM) |

| Structure (SMILES) | Emax (M4 muscarinic receptor) [%] | Emax (M1 muscarinic receptor) [%] | Emax (M3 muscarinic receptor) [%] | Emax (M2 muscarinic receptor) [%] | M4 Activity (M4 muscarinic receptor) | M1 Activity (M1 muscarinic receptor) | M3 Activity (M3 muscarinic receptor) | M2 Activity (M2 muscarinic receptor) |
| --- | --- | --- | --- | --- | --- | --- | --- | --- |
| COc1ccc(F)cc1C1(OC)CCN(CC2CCOCC2)CC1 [Compound 150] | 25 to 100 | 25 to 100 | < 25 | < 25 | + (activity was measured to be greater than 5.0 μM) | + (activity was measured to be greater than 5.0 μM) | + (activity was measured to be greater than 5.0 μM) | + (activity was measured to be greater than 5.0 μM) |
| COc1ccc(F)cc1C1(OC)CCN(C[C@@H]2C[C@H]3C=C[C@H]2C3)CC1 [Compound 160] | 25 to 100 | 25 to 100 | < 25 | < 25 | +++ (activity was measured to be less than 1.0 μM) | + (activity was measured to be greater than 5.0 μM) | + (activity was measured to be greater than 5.0 μM) | + (activity was measured to be greater than 5.0 μM) |
